Experimental data taken from patent US12037344B2, “NLRP3 modulators” (INNATE TUMOR IMMUNITY, INC., priority 2018, dated 2024).
Like-named read-outs stand apart in the source and are kept apart here.

Key:
[1] = system: THP-1 cells; experiment: Measurement of IL-1β production, hTRF protocol (second alternative procedure), THP-1 cells; assay type: cell-based, human
In short: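 THP-1 cells differentiated overnight with 50 ng/ml PMA, then plated at 50,000 cells/well in RPMI with 2% FBS onto serial compound dilutions (top final concentration 10 μM) for 2 hours at 37° C. Supernatant IL-1β measured by hTRF (antibodies at 1:40, overnight at 4° C), read at 665/615 nm against a standard curve.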

[2] = target: T1, TLR7 (Homo sapiens, UniProt Q9NYK1); experiment: In vitro human TLR7 binding reporter assay (HEK-Blue, NF-kB/AP1-inducible SEAP); assay type: cell-based; conditions: read-out: TLR7 Agonist EC50
T1 construct: human HEK-Blue cells co-expressing a TLR7 or TLR8 gene
T1 sequence (Q9NYK1 27-1049): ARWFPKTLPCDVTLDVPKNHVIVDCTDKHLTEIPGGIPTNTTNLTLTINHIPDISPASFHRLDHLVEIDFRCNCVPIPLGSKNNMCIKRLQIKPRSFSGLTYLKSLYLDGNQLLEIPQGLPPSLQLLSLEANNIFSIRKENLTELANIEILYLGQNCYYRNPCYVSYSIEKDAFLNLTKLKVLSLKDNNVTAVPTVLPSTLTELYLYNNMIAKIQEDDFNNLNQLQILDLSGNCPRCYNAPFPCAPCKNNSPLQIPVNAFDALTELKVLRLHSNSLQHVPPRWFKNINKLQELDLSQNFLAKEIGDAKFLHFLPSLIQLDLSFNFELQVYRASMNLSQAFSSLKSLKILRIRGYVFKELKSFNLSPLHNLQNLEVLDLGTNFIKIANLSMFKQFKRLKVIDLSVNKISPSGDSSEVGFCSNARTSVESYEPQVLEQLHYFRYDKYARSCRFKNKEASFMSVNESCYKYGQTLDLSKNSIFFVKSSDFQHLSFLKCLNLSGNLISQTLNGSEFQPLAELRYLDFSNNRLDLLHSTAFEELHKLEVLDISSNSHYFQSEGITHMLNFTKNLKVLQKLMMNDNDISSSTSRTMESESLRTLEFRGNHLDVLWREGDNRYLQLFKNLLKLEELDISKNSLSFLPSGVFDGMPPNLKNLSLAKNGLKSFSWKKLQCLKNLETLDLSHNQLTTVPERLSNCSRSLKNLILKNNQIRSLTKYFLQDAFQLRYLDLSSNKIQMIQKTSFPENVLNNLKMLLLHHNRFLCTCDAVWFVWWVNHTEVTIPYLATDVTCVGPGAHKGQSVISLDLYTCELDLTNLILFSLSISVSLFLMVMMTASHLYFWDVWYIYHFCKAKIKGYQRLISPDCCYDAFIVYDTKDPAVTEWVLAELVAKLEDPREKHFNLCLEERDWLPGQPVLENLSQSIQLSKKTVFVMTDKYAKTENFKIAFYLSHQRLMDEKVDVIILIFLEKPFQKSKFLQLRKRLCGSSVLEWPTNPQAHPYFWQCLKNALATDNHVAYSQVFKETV
In short: (§1)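 EC50s come from NF-kB/AP1-driven SEAP secretion in HEK-Blue cells expressing TLR7 or TLR8, measured with Quanti-Blue after an 18 h compound incubation. Maximal response is defined by a 50 μM reference standard.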

[3] = target: T2, TLR8 (Homo sapiens, UniProt Q9NR97); experiment: In vitro human TLR8 binding reporter assay (HEK-Blue, NF-kB/AP1-inducible SEAP); assay type: cell-based; conditions: read-out: TLR8 Agonist EC50
T2 construct: human HEK-Blue cells co-expressing a TLR7 or TLR8 gene
T2 sequence (Q9NR97 27-1041): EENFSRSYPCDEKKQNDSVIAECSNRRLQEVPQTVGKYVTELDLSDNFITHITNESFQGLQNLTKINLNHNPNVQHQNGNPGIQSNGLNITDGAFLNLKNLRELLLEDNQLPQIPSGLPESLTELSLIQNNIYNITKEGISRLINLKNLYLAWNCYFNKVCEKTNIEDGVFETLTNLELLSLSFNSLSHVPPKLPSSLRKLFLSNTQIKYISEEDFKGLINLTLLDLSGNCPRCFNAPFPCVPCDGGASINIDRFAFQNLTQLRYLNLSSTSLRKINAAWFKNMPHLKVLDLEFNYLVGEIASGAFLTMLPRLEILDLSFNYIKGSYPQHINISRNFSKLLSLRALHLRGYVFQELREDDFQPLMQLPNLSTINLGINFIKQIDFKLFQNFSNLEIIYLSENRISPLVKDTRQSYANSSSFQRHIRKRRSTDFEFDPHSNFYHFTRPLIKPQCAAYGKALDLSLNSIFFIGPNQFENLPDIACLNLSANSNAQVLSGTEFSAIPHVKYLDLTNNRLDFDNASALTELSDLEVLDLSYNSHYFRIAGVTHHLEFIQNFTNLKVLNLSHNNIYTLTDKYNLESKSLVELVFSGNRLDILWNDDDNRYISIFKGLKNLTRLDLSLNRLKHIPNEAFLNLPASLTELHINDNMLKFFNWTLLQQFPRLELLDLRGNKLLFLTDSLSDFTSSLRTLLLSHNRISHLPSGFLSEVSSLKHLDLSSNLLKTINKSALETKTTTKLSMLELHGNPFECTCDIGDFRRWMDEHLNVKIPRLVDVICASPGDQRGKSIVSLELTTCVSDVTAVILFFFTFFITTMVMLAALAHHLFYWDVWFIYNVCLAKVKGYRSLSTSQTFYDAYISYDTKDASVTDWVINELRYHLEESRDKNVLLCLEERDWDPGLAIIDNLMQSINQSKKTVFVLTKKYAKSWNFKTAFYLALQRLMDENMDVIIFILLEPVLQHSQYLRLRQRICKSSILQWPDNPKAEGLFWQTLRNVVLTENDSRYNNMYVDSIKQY
In short: as §1

[4] = Homo sapiens, THP-1, IL-1β production, human, read-out: NLRP3 hILIB EC50
[5] = Homo sapiens, THP-1, IL-1β production, human cells, read-out: NLRP3 hILIB EC50

SMILES | EC50 [1, 4] [µM] | EC50 ([2]; activity range class) [µM] | EC50 ([3]; activity range class) [µM] | EC50 [1, 5] [µM] | EC50 ([2]; activity range) [µM] | EC50 ([3]; activity range) [µM] | EC50 ([1]; IL-1β production, human, read-out: NLRP3 hILIB EC50) [µM] | EC50 ([1]; Homo sapiens, THP-1, read-out: NLRP3 hILIB EC50) [µM]
CS(=O)(=O)CCCn1cc2c(n1)c(N)nc1cc(-c3cc[nH]n3)ccc12 [Example 171] | 0.6 | > 100 | > 100 | – | – | – | – | –
Nc1nc2cc(-c3cc[nH]n3)ccc2c2[nH]c(CCNC(=O)c3cc(F)ccn3)cc12 [Example 416] | – | – | – | 0.15 | > 100 | > 100 | – | –
Nc1nc2cc(-c3cc[nH]n3)ccc2c2nn(CCC(=O)N3CC(F)(F)C3)cc12 [Example 503] | – | – | – | 2.58 | > 100 | > 100 | – | –
Nc1nc2cc(-c3cc[nH]n3)ccc2c2[nH]c(CN3C[C@H]4COC[C@H]4C3)cc12 [Example 490] | – | – | – | 0.84 | > 100 | > 100 | – | –
CO[C@H]1CCN(Cc2cc3c(N)nc4cc(-c5cc[nH]n5)ccc4c3[nH]2)C1 [Example 472] | – | – | – | 0.23 | > 100 | > 100 | – | –
Nc1nc2cc(-c3cc[nH]n3)ccc2c2[nH]c(CN[C@@H]3CCOC3)cc12 [Example 422] | – | – | – | 0.14 | > 100 | > 100 | – | –
Nc1nc2cc(-c3ccn[nH]3)ccc2c2[nH]c(CCCO)cc12 [Example 440] | – | – | – | 0.13 | > 100 | > 100 | – | –
Nc1nc2cc(-c3cc[nH]n3)ccc2c2nn(CC(O)CC(F)(F)F)cc12 (single isomer, unassigned) [Example 378] | 0.64 | > 100 | > 100 | – | – | – | – | –
N#Cc1ccc(C(=O)NCCn2cc3c(n2)c(N)nc2cc(-c4cc[nH]n4)ccc23)nc1 [Example 64] | 0.48 | > 100 | > 100 | – | – | – | – | –
COCCCn1ncc2c(N)nc3cc(-c4cc[nH]n4)ccc3c21 [Example 228] | 0.3 | > 100 | > 100 | – | – | – | – | –
N#CC[C@H](O)Cn1cc2c(N)nc3cc(-c4cc[nH]n4)ccc3c2n1 [Example 380] | 0.77 | > 100 | > 100 | – | – | – | – | –
CC(=O)NCCn1cc2c(n1)c(N)nc1cc(-c3cc[nH]n3)ccc12 [Example 33] | 11.8 | > 100 | > 100 | – | – | – | – | –
CCN1CCOCC1Cn1cc2c(N)nc3cc(-c4ccn[nH]4)ccc3c2n1 (stereo not drawn) [Example 263] | 1.66 | > 100 | > 100 | – | – | – | – | –
Nc1nc2cc(-c3cc[nH]n3)ccc2c2nn(CCO)cc12 [Example 396] | – | – | – | 0.65 | > 100 | > 100 | – | –
Nc1nc2cc(-c3cc[nH]n3)ccc2c2nn(C3CCC(O)C3)cc12 (single isomer, unassigned) [Example 341] | 0.43 | > 100 | > 100 | – | – | – | – | –
CS(=O)(=O)CCCn1cc2c(N)nc3cc(-n4cccn4)ccc3c2n1 [Example 387] | 2.3 | > 100 | > 100 | – | – | – | – | –
Nc1nc2cc(-n3cccn3)ccc2c2c1cnn2CCO [Example 250, 2-(4-amino-7-(1H-pyrazol-1-yl)-1H-pyrazolo[4,3-c]quinolin-1-yl)ethan-1-ol] | 1.95 | > 100 | > 100 | – | – | – | – | –

SMILES | EC50 [1, 4] [µM] | EC50 ([2]; activity range class) [µM] | EC50 ([3]; activity range class) [µM] | EC50 [1, 5] [µM] | EC50 ([2]; activity range) [µM] | EC50 ([3]; activity range) [µM] | EC50 ([1]; IL-1β production, human, read-out: NLRP3 hILIB EC50) [µM] | EC50 ([1]; Homo sapiens, THP-1, read-out: NLRP3 hILIB EC50) [µM]
CCn1c(CN(C)C)cc2c(N)nc3cc(-c4ccn[nH]4)ccc3c21 [Example 444] | – | – | – | 0.26 | > 100 | > 100 | – | –
Cc1nc(C(=O)NCCn2cc3c(n2)c(N)nc2cc(-c4cc[nH]n4)ccc23)c(C(F)(F)F)o1 [Example 71] | 0.81 | 20 to 100 | 20 to 100 | – | – | – | – | –
COCC(O)Cn1ncc2c(N)nc3cc(-c4cc[nH]n4)ccc3c21 (stereo not drawn) [Example 306] | 1.26 | > 100 | > 100 | – | – | – | – | –
Nc1nc2cc(-c3cc[nH]n3)ccc2c2nn(C3CCCCC3O)cc12 (single isomer, unassigned) [Example 318] | – | > 100 | > 100 | – | – | – | 3.09 | –
C[C@H](O)Cn1ncc2c(N)nc3cc(-c4cc[nH]n4)ccc3c21 [Example 401] | – | – | – | 2.66 | > 100 | > 100 | – | –
CC(Cn1cc2c(N)nc3cc(-c4ccn[nH]4)ccc3c2n1)NC(=O)c1ccc(F)cn1 (stereo not drawn) [Example 294] | 0.43 | > 100 | > 100 | – | – | – | – | –
Nc1nc2cc(-n3cccn3)ccc2c2cn(Cc3ccccn3)nc12 [Example 14] | 1.68 | 20 to 100 | 20 to 100 | – | – | – | – | –
CC(C)(Cn1cc2c(N)nc3cc(-c4ccn[nH]4)ccc3c2n1)C(=O)NCC(F)F [Example 596] | – | – | – | 10.1 | > 100 | > 100 | – | –
Cc1cc(Cn2cc3c(n2)c(N)nc2cc(-c4cc[nH]n4)ccc23)no1 [Example 173] | 0.21 | > 100 | 1 to 20 | – | – | – | – | –
Nc1nc2cc(-c3cc[nH]n3)ccc2c2nn(CCNC(=O)c3cc(Cl)ccn3)cc12 [Example 197] | 0.25 | > 100 | > 100 | – | – | – | – | –
Nc1nc2cc(-c3cc[nH]n3)ccc2c2nn(Cc3cscn3)cc12 [Example 362] | 0.07 | > 100 | > 100 | – | – | – | – | –
COCCOCCn1cc2c(n1)c(N)nc1cc(-n3cccn3)ccc12 [Example 15] | 1.81 | 20 to 100 | > 100 | – | – | – | – | –
Nc1nc2cc(-c3cc[nH]n3)ccc2c2[nH]c(CN3C[C@@H]4C[C@H]3CO4)cc12 [Example 471] | – | – | – | 0.75 | > 100 | > 100 | – | –
CCN(CCn1cc2c(N)nc3cc(-c4ccn[nH]4)ccc3c2n1)C(C)=O [Example 272] | 5.13 | > 100 | > 100 | – | – | – | – | –
CC(=O)NCc1cc2c(N)nc3cc(-n4cccn4)ccc3c2[nH]1 [Example 445] | – | – | – | 0.66 | > 100 | > 100 | – | –
Nc1nc2cc(-c3cc[nH]n3)ccc2c2cn(CCOC(F)F)nc12 [Example 397] | – | – | – | 0.34 | 1 to 20 | > 100 | – | –
Nc1nc2cc(-c3cc[nH]n3)ccc2c2cn(CCNS(=O)(=O)c3ccccc3)nc12 [Example 114, N-{2-[4-amino-7-(1H-pyrazol-3-yl)-2H-pyrazolo[3,4-c]quinolin-2-yl]ethyl}benzenesulfonamide] | – | > 100 | > 100 | – | – | – | – | 4.84
